Assay results as given in article PMC3880221 (Chembiochem : a European journal of chemical biology, 2011).

What was measured:
[1] = molecular target: T1, NRH:quinone oxidoreductase 2 (NQO2, QR2) (Homo sapiens, UniProt P16083); experiment: co-crystal structure; format: binding
T1 sequence (P16083 1-231): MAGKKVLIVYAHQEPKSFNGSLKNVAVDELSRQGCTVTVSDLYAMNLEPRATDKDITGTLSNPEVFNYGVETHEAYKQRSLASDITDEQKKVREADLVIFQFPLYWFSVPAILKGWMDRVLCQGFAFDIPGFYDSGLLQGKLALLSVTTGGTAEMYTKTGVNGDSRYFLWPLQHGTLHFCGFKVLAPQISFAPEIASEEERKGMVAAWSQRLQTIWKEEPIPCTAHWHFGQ

NQO1 (QR1) = NQO1 (QR1) (Homo sapiens, UniProt P15559); experiment: recombinant human NQO1 activity after treatment with […] compound ± NADH; format: biochemical
Sequence of NQO1 (QR1) (P15559 whole entry): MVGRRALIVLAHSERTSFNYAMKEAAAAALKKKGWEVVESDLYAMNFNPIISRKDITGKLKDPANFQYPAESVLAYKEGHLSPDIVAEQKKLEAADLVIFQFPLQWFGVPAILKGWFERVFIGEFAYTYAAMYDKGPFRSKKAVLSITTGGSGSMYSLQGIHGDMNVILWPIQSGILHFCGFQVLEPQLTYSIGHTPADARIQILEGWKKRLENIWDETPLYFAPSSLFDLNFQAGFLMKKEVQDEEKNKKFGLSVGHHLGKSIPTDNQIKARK

SMILES | Kd [1] | partition ratio (NQO1 (QR1))
Cc1c(COc2ccc([N+](=O)[O-])cc2)c2c(n1C)C(=O)C=C(NCCCCN)C2=O [2c, 5-(4-Aminobutyl)amino-1,2-dimethyl-3-(4-nitrophenoxy)methylindole-4,7-dione] | Kd1 = 71; Kd2 = 19 μM | 
COC1=CC(=O)c2c(c(COc3ccc([N+](=O)[O-])cc3)c(C)n2C)C1=O [1a, 5-methoxy-1,2-dimethyl-3-(4-nitrophenoxymethyl)indole-4,7-dione] |  | 3.5 (partition ratio)
